Data reported in the supplement of paper PMC10307832.

Columns and labels:
Assay in all cases: relative viability (nuclei count vs DMSO), 5 days (fraction); higher = more cells survive
[1] = compound: C1=CC=C2C(=C1)N=C(S2)C(C#N)C3=NC(=NC=C3)NCCC4=CN=CC=C4 + N=C(N)NC(=N)NCCc1ccccc1 [Phenformin] (partner 250 µM)
Outline: (§1)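 For relative viability, nuclei counts in treated wells were divided by those in vehicle wells. Lung cancer cell lines had been pin-tool dosed in 1536-well plates the day after seeding and cultured for 5 days, then fixed and stained in one step (final 0.05% Triton X-100, 1% formaldehyde, 1 ug/ml Hoechst) and imaged at 4×. Doses were one drug alone or a fixed anchor-drug dose plus five library-drug doses (not always all listed) in √10 steps, and values are duplicate-plate medians.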

NVP-TAE684 + Bortezomib = compound: COc1cc(N2CCC(N3CCN(C)CC3)CC2)ccc1Nc1ncc(Cl)c(Nc2ccccc2S(=O)(=O)C(C)C)n1 [NVP-TAE684] + CC(C)C[C@H](NC(=O)[C@H](Cc1ccccc1)NC(=O)c1cnccn1)B(O)O [Bortezomib] (partner 0.002 µM)
Outline: as §1

NVP-TAE684 + Crizotinib = compound: COc1cc(N2CCC(N3CCN(C)CC3)CC2)ccc1Nc1ncc(Cl)c(Nc2ccccc2S(=O)(=O)C(C)C)n1 [NVP-TAE684] + C[C@@H](Oc1cc(-c2cnn(C3CCNCC3)c2)cnc1N)c1c(Cl)ccc(F)c1Cl [Crizotinib] (partner 1 µM)
Outline: as §1

NVP-TAE684 + Alpelisib = compound: COc1cc(N2CCC(N3CCN(C)CC3)CC2)ccc1Nc1ncc(Cl)c(Nc2ccccc2S(=O)(=O)C(C)C)n1 [NVP-TAE684] + Cc1nc(NC(=O)N2CCC[C@H]2C(N)=O)sc1-c1ccnc(C(C)(C)C(F)(F)F)c1 [Alpelisib] (partner 2 µM)
Outline: as §1

Vandetanib + Bortezomib = compound: COc1cc2/c(=N/c3ccc(Br)cc3F)nc[nH]c2cc1OCC1CCN(C)CC1 [Vandetanib] + CC(C)C[C@H](NC(=O)[C@H](Cc1ccccc1)NC(=O)c1cnccn1)B(O)O [Bortezomib] (partner 0.002 µM)
Outline: as §1

Row | Cell Line | relative viability ([1]; first compound 0.005 µM) | relative viability ([1]; first compound 0.01581 µM) | relative viability ([1]; first compound 0.05 µM) | relative viability ([1]; first compound 0.1581 µM) | relative viability ([1]; first compound 0.5 µM) | relative viability (NVP-TAE684 + Bortezomib; first compound 0.2 µM) | relative viability (NVP-TAE684 + Bortezomib; first compound 0.6325 µM) | relative viability (NVP-TAE684 + Bortezomib; first compound 2 µM) | relative viability (NVP-TAE684 + Crizotinib; first compound 0.2 µM) | relative viability (NVP-TAE684 + Crizotinib; first compound 0.6325 µM) | relative viability (NVP-TAE684 + Crizotinib; first compound 2 µM) | relative viability (NVP-TAE684 + Alpelisib; first compound 0.2 µM) | relative viability (NVP-TAE684 + Alpelisib; first compound 0.6325 µM) | relative viability (NVP-TAE684 + Alpelisib; first compound 2 µM) | relative viability (Vandetanib + Bortezomib; first compound 0.02 µM) | relative viability (Vandetanib + Bortezomib; first compound 0.06325 µM) | relative viability (Vandetanib + Bortezomib; first compound 0.2 µM) | relative viability (Vandetanib + Bortezomib; first compound 0.6325 µM) | relative viability (Vandetanib + Bortezomib; first compound 2 µM)
1 | NCI-H647 | 0.265 | 0.442 | 0.584 | 0.775 | 0.292 | 1.38 | 1.11 | 0.77 | 0.959 | 0.983 | 0.172 | 1.32 | 1.1 | 0.377 | 0.962 | 0.947 | 1.05 | 0.817 | 0.804
2 | NCI-H1666 | 0.529 | 0.578 | 0.556 | 0.539 | 0.511 | 0.849 | 0.71 | 0.4 | 1.07 | 0.841 | 0.526 |  | 0.837 | 0.524 | 0.849 | 0.814 | 0.712 | 0.831 | 0.786
3 | A-427 | 0.252 | 0.34 | 0.367 | 0.322 | 0.288 | 1.1 |  | 0.78 |  |  | 0.512 | 1.12 |  | 0.899 | 0.887 | 0.99 | 1.04 | 1.02 | 0.961
4 | NCI-H650 | 0.49 |  | 0.483 | 0.452 | 0.505 | 0.784 | 0.562 | 0.614 | 0.799 | 0.516 | 0.399 | 1.06 | 0.961 | 0.571 | 0.757 | 0.877 | 0.705 | 0.862 | 0.596
5 | NCI-H1437 | 0.298 | 0.3 | 0.345 | 0.339 | 0.223 | 0.452 | 0.487 | 0.322 | 0.818 | 1.06 | 0.795 | 1 | 1 | 0.516 | 0.486 | 0.56 | 0.47 | 0.506 | 0.398
6 | HCC-366 | 0.551 | 0.615 | 0.547 | 0.722 | 0.601 | 0.855 | 1.08 | 1.17 | 0.923 | 0.648 | 0.226 | 0.758 | 0.342 | 0.0918 | 1.05 | 0.983 | 0.867 | 0.909 | 1.02
7 | NCI-H661 | 0.231 | 0.255 | 0.291 | 0.291 | 0.277 | 0.791 | 0.88 | 0.842 | 1.03 | 1.02 | 1.05 | 0.808 |  | 0.596 | 0.828 | 0.943 | 0.769 | 0.807 | 0.702
8 | HCC-78 | 0.677 | 0.635 | 0.656 | 0.814 | 0.741 | 0.428 | 0.381 | 0.307 | 0.287 | 0.296 | 0.286 | 0.319 | 0.198 | 0.282 | 0.618 | 0.6 | 0.511 | 0.668 | 0.383
9 | HCC-44 | 0.271 | 0.183 | 0.211 | 0.296 | 0.162 | 1 | 0.863 | 0.83 | 0.782 | 0.868 | 0.489 | 0.835 | 0.784 | 0.313 | 0.866 | 0.884 | 0.951 | 0.958 | 0.89
10 | NCI-H1355 | 0.41 | 0.437 | 0.412 | 0.436 | 0.412 | 1.23 | 1.17 | 0.859 | 1.09 | 0.978 | 0.568 | 0.721 | 0.928 | 0.473 | 1.22 | 1.18 | 1.16 | 1.22 | 1.27
11 | NCI-H1993 | 0.586 | 0.514 | 0.461 | 0.58 | 0.542 |  | 1.09 | 0.806 |  | 0.709 | 0.548 |  | 0.7 | 0.696 | 1.03 | 0.905 | 1.04 | 0.807 | 0.719
12 | NCI-H1734 |  | 0.44 | 0.375 | 0.471 | 0.392 | 0.986 | 0.982 | 0.601 |  | 0.7 | 0.424 | 0.768 | 0.916 | 0.468 | 0.976 | 0.869 | 0.944 | 0.904 | 0.926
13 | COR-L 105 | 0.322 | 0.487 | 0.582 | 0.525 | 0.411 | 0.903 | 0.556 | 0.309 | 0.677 | 0.461 | 0.388 | 0.852 | 0.926 | 0.538 | 0.827 | 0.661 | 0.851 | 0.474 | 0.388
14 | EMC-BAC-2 | 0.413 | 0.517 | 0.516 | 0.657 | 0.368 |  | 1.01 | 0.734 | 0.751 | 0.806 | 0.441 | 0.704 | 0.759 | 0.436 | 1.02 | 1.04 | 1.01 | 1.03 | 1.04
15 | NCI-H1915 | 0.312 | 0.37 | 0.356 | 0.398 | 0.353 | 1.09 | 1.03 | 1.05 | 0.922 | 0.921 | 0.858 | 1.03 | 1.13 | 0.963 | 0.947 | 0.885 | 1.07 | 0.973 | 0.943
16 | CAL-12T | 0.539 | 0.433 | 0.584 | 0.619 | 0.485 | 0.974 | 0.645 | 0.366 | 0.63 | 0.444 | 0.282 | 1.24 | 1.38 | 0.535 | 1.03 | 1.13 | 0.865 | 0.82 | 0.537
17 | NCI-H2085 | 0.639 | 0.702 | 0.595 | 0.819 | 0.799 | 0.95 | 0.926 | 0.955 | 0.788 | 0.872 | 0.55 | 0.934 | 0.897 | 0.712 | 1.08 | 1.02 | 1.02 | 1.09 | 1.04
